Measurements reported in patent US11591323B2, “Muscarinic agonists as non-steroidal and non-opioid analgesics and methods of use thereof” (Barry University, priority 2019, dated 2023).
Where two headings read alike, the source gives them in different places.

What was measured:
Design in all cases: host or cells: CHO cells, stably transfected
M1 muscarinic receptor = target: T1, M1 muscarinic receptor (Homo sapiens, UniProt P11229); assay: [3H]NMS competition binding, M1 CHO membranes; conditions: competition with 1 nM [3H]NMS; read-out: Inhibition constants (Ki) as negative logarithms, M1 (converted)
T1 sequence (P11229 1-460): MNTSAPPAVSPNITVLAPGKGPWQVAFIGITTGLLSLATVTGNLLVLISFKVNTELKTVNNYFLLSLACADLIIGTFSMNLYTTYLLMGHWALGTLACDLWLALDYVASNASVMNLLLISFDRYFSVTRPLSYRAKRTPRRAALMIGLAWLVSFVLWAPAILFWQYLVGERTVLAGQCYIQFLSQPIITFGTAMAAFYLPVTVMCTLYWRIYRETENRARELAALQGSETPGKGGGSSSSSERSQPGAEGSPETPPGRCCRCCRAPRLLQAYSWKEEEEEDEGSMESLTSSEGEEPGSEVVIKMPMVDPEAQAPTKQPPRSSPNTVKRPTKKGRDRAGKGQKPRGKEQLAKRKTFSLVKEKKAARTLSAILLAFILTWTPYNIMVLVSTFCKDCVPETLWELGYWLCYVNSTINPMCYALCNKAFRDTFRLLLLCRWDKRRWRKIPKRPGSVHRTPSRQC

M2 muscarinic receptor = target: T2, M2 muscarinic receptor (Homo sapiens, UniProt P08172); assay: [3H]NMS competition binding, M2 CHO membranes; conditions: competition with 1 nM [3H]NMS; read-out: Inhibition constants (Ki) as negative logarithms, M2 (converted)
T2 sequence (P08172 1-466): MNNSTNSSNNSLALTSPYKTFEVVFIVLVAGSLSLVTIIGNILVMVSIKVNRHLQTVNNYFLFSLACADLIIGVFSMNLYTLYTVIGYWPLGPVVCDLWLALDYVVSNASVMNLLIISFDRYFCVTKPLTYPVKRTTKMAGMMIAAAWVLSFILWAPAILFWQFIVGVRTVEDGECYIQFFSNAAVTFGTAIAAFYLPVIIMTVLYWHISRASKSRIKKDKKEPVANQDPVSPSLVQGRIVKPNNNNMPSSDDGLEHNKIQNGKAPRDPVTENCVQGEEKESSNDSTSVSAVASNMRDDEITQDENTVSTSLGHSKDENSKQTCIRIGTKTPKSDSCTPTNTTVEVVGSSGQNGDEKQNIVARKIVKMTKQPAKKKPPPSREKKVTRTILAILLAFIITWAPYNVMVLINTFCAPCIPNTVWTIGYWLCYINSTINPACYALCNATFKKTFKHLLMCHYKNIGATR

M4 muscarinic receptor [1] = target: T3, M4 muscarinic receptor (Homo sapiens, UniProt P08173); assay: [3H]NMS competition binding, M4 CHO membranes; conditions: at M4 receptors; read-out: Inhibition constants Ki
T3 sequence (P08173 1-479): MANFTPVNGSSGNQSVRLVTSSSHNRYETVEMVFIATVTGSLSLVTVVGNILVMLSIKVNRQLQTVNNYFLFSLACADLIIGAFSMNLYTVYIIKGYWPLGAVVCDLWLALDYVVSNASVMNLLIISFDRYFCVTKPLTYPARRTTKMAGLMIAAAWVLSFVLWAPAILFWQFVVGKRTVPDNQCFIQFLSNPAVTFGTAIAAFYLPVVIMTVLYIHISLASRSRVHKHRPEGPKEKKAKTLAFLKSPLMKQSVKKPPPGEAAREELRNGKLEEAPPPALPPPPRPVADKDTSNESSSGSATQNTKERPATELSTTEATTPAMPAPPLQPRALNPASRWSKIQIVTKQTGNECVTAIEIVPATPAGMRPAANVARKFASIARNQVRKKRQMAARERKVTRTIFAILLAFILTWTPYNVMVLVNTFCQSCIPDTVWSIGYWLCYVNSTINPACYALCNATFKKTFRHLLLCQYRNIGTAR

M5 muscarinic receptor [2] = target: T4, M5 muscarinic receptor (Homo sapiens, UniProt P08912); assay: [3H]NMS competition binding, M5 CHO membranes; conditions: competition with 1 nM [3H]NMS; read-out: Inhibition constants (Ki) as negative logarithms, M5 (converted)
T4 sequence (P08912 1-532): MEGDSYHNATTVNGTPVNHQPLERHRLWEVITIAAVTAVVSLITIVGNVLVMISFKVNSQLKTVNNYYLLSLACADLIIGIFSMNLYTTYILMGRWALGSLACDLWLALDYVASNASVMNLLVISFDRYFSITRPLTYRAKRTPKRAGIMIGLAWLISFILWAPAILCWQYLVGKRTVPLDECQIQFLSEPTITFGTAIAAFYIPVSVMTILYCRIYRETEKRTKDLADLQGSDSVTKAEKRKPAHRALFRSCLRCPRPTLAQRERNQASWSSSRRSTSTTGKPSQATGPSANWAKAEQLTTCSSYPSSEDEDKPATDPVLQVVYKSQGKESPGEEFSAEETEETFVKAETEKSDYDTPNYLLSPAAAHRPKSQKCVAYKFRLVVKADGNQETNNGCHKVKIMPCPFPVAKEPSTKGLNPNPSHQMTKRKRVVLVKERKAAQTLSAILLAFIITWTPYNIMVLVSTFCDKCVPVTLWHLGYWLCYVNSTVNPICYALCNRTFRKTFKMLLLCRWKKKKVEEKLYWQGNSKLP

M3 muscarinic receptor = M3 muscarinic receptor (Homo sapiens, UniProt P20309); assay: accumulation of IPX, M3 CHO cells (M3Gq); assay type: cell-based; conditions: for Kd: read-out: pKA (converted); for EC50: read-out: pEC50 (converted)
Chain of M3 muscarinic receptor (P20309 whole entry): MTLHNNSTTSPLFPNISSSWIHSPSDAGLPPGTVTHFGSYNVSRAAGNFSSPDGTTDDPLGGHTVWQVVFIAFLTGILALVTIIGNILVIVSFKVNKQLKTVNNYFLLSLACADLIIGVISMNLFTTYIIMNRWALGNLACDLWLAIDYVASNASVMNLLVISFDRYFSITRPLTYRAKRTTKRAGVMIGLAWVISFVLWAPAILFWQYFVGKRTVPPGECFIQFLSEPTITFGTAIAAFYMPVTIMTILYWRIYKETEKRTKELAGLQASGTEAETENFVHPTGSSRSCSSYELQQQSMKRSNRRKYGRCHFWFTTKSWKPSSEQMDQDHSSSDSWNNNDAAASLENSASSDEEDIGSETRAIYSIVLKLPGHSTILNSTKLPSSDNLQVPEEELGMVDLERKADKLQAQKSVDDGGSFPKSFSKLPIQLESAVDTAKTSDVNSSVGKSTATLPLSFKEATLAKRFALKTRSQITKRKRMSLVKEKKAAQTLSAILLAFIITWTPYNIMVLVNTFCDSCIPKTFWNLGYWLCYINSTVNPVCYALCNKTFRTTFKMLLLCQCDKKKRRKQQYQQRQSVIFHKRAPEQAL

M4 muscarinic receptor [3] = target: T3, M4 muscarinic receptor; assay: inhibition of forskolin-stimulated cAMP, M4 CHO cells (M4Gi); assay type: cell-based; conditions: for Kd: read-out: pKA (converted); for EC50: read-out: pEC50 (converted)
M5 muscarinic receptor [4] = target: T4, M5 muscarinic receptor; assay: accumulation of IPX, M5 CHO cells (M5Gq); assay type: cell-based; conditions: for EC50: read-out: pEC50 (converted)
[5] = M3 (↑IPX), preferential response, Table 7
[6] = M5 (↑IPX), preferential response, Table 7

Ki (M1 muscarinic receptor): 44.7 µM
Ki (M2 muscarinic receptor): 42.7 µM
Ki (M4 muscarinic receptor [1]): 54 µM
Ki (M5 muscarinic receptor [2]): 50.1 µM
E′MAX (M3 muscarinic receptor; [5]): 2.5 ± 0.2 fold over basal
τ (M3 muscarinic receptor; M3 (↑IPX), preferential response, Table 7, operational efficacy): 0.06 ± 0.01
Kd (M3 muscarinic receptor; M3 (↑IPX), preferential response, Table 7, operational model): 5.01 µM
EC50 (M3 muscarinic receptor; [5]): 5.01 µM
RAi (M3 muscarinic receptor; M3 (↑IPX), preferential response, relative to carbachol, Tables 2, 3, 7): 0.0058 ± 0.0005
Δlog(τ/KA) (M3 muscarinic receptor; M3 (↑IPX), preferential response, to carbachol, Tables 2, 3, 7): 2.23 ± 0.23
E′MAX (M3 muscarinic receptor; M3Gq (↑IPX), Table 8): 2.4 ± 0.2 fold over basal
τ (M3 muscarinic receptor; M3Gq (↑IPX), Table 8): 0.05 ± 0.01
RAi (M3 muscarinic receptor; M3Gq (↑IPX), Table 8, relative to carbachol): 0.0056 ± 0.0008
Δlog(τ/KA) (M3 muscarinic receptor; M3Gq (↑IPX), Table 8, to carbachol): 2.26 ± 0.48
EC50 (M3 muscarinic receptor; M3Gq (↑IPX), Table 8): 5.01 µM
Kd (M3 muscarinic receptor; M3Gq (↑IPX), Table 8): 5.01 µM
Emax (M4 muscarinic receptor [3]; CHO, M4 (↓cAMP), preferential response, Table 7, read-out: E′MAX): 25 ± 2%
τ (M4 muscarinic receptor [3]; M4 (↓cAMP), preferential response, Table 7, operational efficacy): 0.39 ± 0.04
Kd (M4 muscarinic receptor [3]; M4 (↓cAMP), preferential response, Table 7, operational model): 6.31 µM
EC50 (M4 muscarinic receptor [3]; M4 (↓cAMP), preferential response, Table 7): 4.27 µM
RAi (M4 muscarinic receptor [3]; M4 (↓cAMP), preferential response, relative to carbachol, Tables 2, 3, 7): 0.0046 ± 0.0004
Δlog(τ/KA) (M4 muscarinic receptor [3]; M4 (↓cAMP), preferential response, to carbachol, Tables 2, 3, 7): 2.15 ± 0.16
E′MAX (M4 muscarinic receptor [3]; M4Gi (↓cAMP), Table 8): 25 ± 2 % inhibition
τ (M4 muscarinic receptor [3]; M4Gi (↓cAMP), Table 8): 0.39 ± 0.04
RAi (M4 muscarinic receptor [3]; M4Gi (↓cAMP), Table 8, relative to carbachol): 0.0046 ± 0.0004
Δlog(τ/KA) (M4 muscarinic receptor [3]; M4Gi (↓cAMP), Table 8, to carbachol): 2.15 ± 0.16
EC50 (M4 muscarinic receptor [3]; M4Gi (↓cAMP), Table 8): 8.51 µM
Kd (M4 muscarinic receptor [3]; M4Gi (↓cAMP), Table 8): 12.6 µM
E′MAX (M5 muscarinic receptor [4]; [6]): 1.19 ± 0.04 fold over basal
EC50 (M5 muscarinic receptor [4]; [6]): 1.58 µM
RAi (M5 muscarinic receptor [4]; M5 (↑IPX), preferential response, relative to carbachol, Tables 2, 3, 7): 0.0025 ± 0.0008
E′MAX (M5 muscarinic receptor [4]; M5Gq (↑IPX), Table 8): 1.16 ± 0.04 fold over basal
RAi (M5 muscarinic receptor [4]; M5Gq (↑IPX), Table 8, relative to carbachol): 0.0023 ± 0.0007
EC50 (M5 muscarinic receptor [4]; M5Gq (↑IPX), Table 8): 1.58 µM
Compound: C1=CCN(Cc2cccs2)CC1.Cl [Compound 6A, 1-[(thiophen-2-yl)methyl]-1,2,3,6-tetrahydropyridin-1-ium chloride]
